Patent US12479847B2 (DANA-FARBER CANCER INSTITUTE, INC., priority 2019, dated 2025)

Tests used:
Test in all cases: KINOMEscan (ScanMAX) kinase profiling
Assay type in all cases: binding
panel of 468 kinases [1] = molecular target: T1, panel of 468 kinases (Homo sapiens, UniProt Q9UBE8); conditions: NLK; 1 μM; read-out: % control
T1 construct: purchased KINOMEscan (ScanMAX) service
T1 sequence (Q9UBE8 1-527): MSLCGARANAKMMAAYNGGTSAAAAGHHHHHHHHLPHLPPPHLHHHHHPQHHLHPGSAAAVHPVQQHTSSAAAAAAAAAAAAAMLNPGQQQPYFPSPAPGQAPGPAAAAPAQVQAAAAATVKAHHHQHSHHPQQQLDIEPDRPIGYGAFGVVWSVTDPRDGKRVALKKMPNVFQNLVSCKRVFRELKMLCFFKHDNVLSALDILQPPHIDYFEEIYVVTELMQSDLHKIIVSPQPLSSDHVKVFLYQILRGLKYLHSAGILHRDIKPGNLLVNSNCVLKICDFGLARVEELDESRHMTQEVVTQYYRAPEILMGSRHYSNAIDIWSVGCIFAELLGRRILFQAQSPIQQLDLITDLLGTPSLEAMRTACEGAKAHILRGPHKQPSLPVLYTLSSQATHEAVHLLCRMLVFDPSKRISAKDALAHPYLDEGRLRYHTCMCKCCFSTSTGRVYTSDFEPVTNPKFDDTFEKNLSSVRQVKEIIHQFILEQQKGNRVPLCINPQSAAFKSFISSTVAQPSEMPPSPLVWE

panel of 468 kinases [2] = molecular target: T2, panel of 468 kinases (Homo sapiens, UniProt Q9UQB9); conditions: AURKC; 1 μM; read-out: % control
T2 construct: purchased KINOMEscan (ScanMAX) service
T2 sequence (Q9UQB9 1-309): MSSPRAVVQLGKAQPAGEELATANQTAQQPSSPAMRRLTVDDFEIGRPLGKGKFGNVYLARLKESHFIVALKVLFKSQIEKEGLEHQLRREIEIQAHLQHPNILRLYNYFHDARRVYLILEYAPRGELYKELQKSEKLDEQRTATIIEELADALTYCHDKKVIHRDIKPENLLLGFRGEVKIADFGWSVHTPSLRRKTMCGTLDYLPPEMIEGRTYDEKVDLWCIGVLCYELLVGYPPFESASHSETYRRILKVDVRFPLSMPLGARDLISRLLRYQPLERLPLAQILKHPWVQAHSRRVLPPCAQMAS

panel of 468 kinases [3] = molecular target: T3, panel of 468 kinases (Homo sapiens, UniProt P36507); conditions: MEK2; 1 μM; read-out: % control
T3 construct: purchased KINOMEscan (ScanMAX) service
T3 sequence (P36507 whole entry): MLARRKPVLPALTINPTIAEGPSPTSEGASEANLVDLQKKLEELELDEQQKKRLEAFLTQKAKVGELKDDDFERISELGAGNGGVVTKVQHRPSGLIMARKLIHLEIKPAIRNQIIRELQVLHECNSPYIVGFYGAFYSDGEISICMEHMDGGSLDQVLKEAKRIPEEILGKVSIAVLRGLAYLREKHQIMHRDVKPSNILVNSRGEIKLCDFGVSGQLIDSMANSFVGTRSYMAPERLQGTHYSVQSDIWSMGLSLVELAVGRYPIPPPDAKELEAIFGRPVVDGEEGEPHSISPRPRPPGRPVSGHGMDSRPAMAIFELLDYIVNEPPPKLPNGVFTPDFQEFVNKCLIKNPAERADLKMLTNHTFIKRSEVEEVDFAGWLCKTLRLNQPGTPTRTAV

panel of 468 kinases [4] = molecular target: T4, panel of 468 kinases (Homo sapiens, UniProt Q9Y2H1); conditions: NDR2; 1 μM; read-out: % control
T4 construct: purchased KINOMEscan (ScanMAX) service
T4 sequence (Q9Y2H1 whole entry): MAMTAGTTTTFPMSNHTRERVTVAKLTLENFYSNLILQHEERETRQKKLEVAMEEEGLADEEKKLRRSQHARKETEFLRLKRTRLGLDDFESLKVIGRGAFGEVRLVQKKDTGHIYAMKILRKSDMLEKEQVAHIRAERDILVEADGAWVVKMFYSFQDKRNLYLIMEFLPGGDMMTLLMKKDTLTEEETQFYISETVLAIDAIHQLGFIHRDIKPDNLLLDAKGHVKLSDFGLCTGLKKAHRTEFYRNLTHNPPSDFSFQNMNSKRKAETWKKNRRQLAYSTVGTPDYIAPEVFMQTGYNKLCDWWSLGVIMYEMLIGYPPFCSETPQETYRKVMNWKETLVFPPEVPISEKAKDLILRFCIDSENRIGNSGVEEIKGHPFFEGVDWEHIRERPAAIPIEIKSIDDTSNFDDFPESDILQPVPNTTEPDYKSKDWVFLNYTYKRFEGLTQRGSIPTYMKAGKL

panel of 468 kinases [5] = molecular target: T5, panel of 468 kinases (Homo sapiens, UniProt Q9P2K8, S808G); conditions: GCN2(Kin.Dom.2,S808G); 1 μM; read-out: % control
T5 construct: purchased KINOMEscan (ScanMAX) service
T5 sequence (Q9P2K8 whole entry S808G): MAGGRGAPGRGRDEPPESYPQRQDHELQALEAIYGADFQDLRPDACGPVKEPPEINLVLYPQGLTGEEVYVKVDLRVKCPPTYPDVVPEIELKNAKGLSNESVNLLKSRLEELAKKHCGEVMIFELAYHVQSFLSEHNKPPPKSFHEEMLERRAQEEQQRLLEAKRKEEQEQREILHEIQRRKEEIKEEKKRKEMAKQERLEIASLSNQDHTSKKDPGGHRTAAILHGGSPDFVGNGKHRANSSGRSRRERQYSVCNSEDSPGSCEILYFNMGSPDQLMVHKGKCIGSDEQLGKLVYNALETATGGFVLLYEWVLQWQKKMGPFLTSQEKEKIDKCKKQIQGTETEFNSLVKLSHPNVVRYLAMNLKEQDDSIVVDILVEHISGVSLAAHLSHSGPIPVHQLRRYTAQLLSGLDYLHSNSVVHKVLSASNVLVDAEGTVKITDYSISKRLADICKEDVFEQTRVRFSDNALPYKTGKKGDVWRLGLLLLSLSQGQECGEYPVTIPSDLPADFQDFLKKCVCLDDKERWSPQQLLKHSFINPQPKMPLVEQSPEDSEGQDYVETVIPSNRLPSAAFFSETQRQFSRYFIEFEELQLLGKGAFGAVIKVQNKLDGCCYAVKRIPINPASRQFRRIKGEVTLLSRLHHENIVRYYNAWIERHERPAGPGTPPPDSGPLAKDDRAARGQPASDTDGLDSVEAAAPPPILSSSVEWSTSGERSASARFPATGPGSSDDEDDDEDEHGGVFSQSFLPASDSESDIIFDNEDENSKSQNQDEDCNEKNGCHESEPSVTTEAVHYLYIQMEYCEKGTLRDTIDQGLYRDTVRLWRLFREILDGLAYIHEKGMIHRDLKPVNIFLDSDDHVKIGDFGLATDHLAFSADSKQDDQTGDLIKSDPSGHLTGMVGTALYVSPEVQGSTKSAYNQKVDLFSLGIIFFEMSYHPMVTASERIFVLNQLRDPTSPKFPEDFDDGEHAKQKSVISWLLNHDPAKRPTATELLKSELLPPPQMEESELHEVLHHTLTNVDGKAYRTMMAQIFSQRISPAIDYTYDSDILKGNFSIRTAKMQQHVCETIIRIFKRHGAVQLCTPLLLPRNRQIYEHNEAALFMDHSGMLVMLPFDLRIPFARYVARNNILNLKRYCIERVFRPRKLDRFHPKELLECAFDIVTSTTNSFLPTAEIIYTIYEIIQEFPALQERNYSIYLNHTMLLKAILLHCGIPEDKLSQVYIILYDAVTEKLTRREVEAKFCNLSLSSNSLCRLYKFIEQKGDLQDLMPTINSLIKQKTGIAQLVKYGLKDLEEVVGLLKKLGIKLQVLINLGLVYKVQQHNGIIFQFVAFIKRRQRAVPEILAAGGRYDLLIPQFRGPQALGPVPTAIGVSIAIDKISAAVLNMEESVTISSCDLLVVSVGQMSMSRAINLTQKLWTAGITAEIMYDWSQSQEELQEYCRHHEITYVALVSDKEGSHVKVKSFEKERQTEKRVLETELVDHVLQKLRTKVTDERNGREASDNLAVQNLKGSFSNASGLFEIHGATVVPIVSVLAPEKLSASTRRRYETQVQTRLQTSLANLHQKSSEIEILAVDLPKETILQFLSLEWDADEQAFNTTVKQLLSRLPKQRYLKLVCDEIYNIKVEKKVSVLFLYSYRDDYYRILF

panel of 468 kinases [6] = molecular target: T6, panel of 468 kinases (Homo sapiens, UniProt P31749); conditions: AKT1; 1 μM; read-out: % control
T6 construct: purchased KINOMEscan (ScanMAX) service
T6 sequence (P31749 whole entry): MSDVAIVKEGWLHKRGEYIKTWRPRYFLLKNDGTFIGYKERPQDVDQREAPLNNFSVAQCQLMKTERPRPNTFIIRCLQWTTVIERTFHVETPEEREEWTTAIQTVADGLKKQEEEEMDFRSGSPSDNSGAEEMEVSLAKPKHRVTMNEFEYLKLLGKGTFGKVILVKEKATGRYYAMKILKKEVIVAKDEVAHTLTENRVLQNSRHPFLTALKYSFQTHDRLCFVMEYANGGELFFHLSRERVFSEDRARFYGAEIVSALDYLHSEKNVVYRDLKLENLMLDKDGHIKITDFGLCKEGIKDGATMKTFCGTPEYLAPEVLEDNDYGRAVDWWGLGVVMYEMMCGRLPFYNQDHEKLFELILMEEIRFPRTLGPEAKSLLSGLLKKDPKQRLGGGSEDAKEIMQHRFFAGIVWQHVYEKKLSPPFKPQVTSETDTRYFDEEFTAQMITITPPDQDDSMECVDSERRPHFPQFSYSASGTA

panel of 468 kinases [7] = molecular target: T7, panel of 468 kinases (Homo sapiens, UniProt Q8WXR4); conditions: MYO3B; 1 μM; read-out: % control
T7 construct: purchased KINOMEscan (ScanMAX) service
T7 sequence (Q8WXR4 1-1341): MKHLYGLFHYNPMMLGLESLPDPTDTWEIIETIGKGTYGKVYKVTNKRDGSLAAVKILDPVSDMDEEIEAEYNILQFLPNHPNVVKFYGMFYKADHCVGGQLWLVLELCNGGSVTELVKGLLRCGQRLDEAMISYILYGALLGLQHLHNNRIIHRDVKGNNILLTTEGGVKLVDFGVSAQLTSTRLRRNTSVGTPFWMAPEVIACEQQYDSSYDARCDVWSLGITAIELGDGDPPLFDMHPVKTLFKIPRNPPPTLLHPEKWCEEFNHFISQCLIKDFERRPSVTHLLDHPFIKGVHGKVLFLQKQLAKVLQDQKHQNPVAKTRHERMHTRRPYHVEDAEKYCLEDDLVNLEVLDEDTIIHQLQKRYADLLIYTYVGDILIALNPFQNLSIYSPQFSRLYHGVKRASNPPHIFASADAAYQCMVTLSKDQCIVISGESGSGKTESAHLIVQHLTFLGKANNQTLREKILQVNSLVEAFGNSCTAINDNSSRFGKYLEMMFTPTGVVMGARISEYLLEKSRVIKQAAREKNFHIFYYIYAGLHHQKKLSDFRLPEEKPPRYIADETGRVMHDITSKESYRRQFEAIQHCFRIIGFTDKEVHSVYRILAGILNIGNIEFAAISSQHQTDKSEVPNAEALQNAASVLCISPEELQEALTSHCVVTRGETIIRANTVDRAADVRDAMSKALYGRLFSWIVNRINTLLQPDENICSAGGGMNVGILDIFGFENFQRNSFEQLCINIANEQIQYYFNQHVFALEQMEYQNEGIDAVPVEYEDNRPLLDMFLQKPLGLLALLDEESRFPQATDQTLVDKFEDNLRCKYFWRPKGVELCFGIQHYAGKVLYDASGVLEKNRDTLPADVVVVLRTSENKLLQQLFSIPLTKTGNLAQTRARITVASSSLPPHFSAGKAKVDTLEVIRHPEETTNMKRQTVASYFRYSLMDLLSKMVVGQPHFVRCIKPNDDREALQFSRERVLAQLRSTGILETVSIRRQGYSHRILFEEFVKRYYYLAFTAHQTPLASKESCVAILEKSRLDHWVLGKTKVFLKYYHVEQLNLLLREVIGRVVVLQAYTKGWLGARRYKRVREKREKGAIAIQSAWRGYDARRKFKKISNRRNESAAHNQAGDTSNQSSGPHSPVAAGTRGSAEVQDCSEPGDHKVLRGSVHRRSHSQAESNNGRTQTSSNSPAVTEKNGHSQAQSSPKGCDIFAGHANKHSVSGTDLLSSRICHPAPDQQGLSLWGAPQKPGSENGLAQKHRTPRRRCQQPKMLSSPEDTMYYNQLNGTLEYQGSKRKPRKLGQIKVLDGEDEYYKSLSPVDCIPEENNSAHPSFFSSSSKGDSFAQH

Structure (SMILES)	remaining binding at 1 µM (panel of 468 kinases [1]) [%]	remaining binding at 1 µM (panel of 468 kinases [2]) [%]	remaining binding at 1 µM (panel of 468 kinases [3]) [%]	remaining binding at 1 µM (panel of 468 kinases [4]) [%]	remaining binding at 1 µM (panel of 468 kinases [5]) [%]	remaining binding at 1 µM (panel of 468 kinases [6]) [%]	remaining binding at 1 µM (panel of 468 kinases [7]) [%]
CNc1nc(Nc2ccc(S(=O)(=O)N3CCC(N4CCOCC4)CC3)cc2OC)nc2[nH]cc(Cl)c12 [Compound 12, 5-chloro-N2-(2-methoxy-4-((4-morpholinopiperidin-1-yl)sulfonyl)phenyl)-N4-methyl-7H-pyrrolo[2,3-d]pyrimidine-2,4-diamine]	100	100	78	100	88	100	95
CNc1nc(Nc2ccc(C(=O)N3CCC(N4CCOCC4)CC3)c3c2OCO3)nc2[nH]cc(Cl)c12 [Compound 75, (7-((5-chloro-4-(methylamino)-7H-pyrrolo[2,3-d]pyrimidin-2-yl)amino)benzo[d][1,3]dioxol-4-yl)(4-morpholinopiperidin-1-yl)methanone]	100	56	76	100	31	100	100
CNc1nc(Nc2ccc(P3(=O)CCN(C4CCOCC4)CC3)cc2OC)nc2[nH]cc(Cl)c12 [Compound 77, 4-(4-((5-chloro-4-(methylamino)-7H-pyrrolo[2,3-d]pyrimidin-2-yl)amino)-3-methoxyphenyl)-1-(tetrahydro-2H-pyran-4-yl)-1,4-azaphosphinane 4-oxide]	100	100	78	100	78	100	100
